According to US10669272B2, “Substituted naphthyridinone compounds useful as T cell activators” (BRISTOL-MYERS SQUIBB COMPANY, priority 2018, dated 2020):
Like-named read-outs stand apart in the source and are kept apart here.

Legend:
naïve human CD8 T cells = experiment: Human CD8 T cells IFN-γ assay; format: cell-based; settings: normalized to 3 μM reference compound with anti-CD3 plus anti-CD28 as 100% activation, read-out: HuCD8 INFG Normalized EC50;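 note: Naïve human CD8 T cells stimulated with plate-bound anti-CD3 and soluble anti-CD28, IFN-γ in supernatant quantified by AlphaLISA and converted to pg/mL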
human DGKζ = biological target: T1, human DGKζ (Homo sapiens, UniProt Q13574); experiment: DGKζ LIPGLO assay (extruded liposome substrate), in vitro DGK inhibition; format: biochemical; settings: liposome (LIPGLO) assay; read-out: DGKz LIPGLO IC50
T1 construct: TVMV protease cleavage site (C); Hexa-His (C); made in house; host or cells: Sf9 insect cells (baculovirus, Bac-to-Bac)

human DGKα = biological target: T2, human DGKα (Homo sapiens, UniProt P23743); experiment: DGKα LIPGLO assay (extruded liposome substrate), in vitro DGK inhibition; format: biochemical; settings: liposome (LIPGLO) assay; read-out: DGKa LIPGLO IC50
T2 construct: TVMV protease cleavage site (C); Hexa-His (C); made in house; host or cells: Sf9 insect cells (baculovirus, Bac-to-Bac)

Human venous whole blood = experiment: Human whole blood IFN-γ assay; format: cell-based; settings: human whole blood, normalized to 3 μM reference compound with anti-CD3 plus anti-CD28 as 100% activation, read-out: INFg Whole Blood Normalized Agonist EC50;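 note: blood from healthy donors exposed to compound for 1 h before stimulation with anti-CD3 and anti-CD28 at 1 µg/mL each, IFN-γ quantified in supernatant by AlphaLISA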

T2 sequence (P23743 with tags, fused parts or gaps): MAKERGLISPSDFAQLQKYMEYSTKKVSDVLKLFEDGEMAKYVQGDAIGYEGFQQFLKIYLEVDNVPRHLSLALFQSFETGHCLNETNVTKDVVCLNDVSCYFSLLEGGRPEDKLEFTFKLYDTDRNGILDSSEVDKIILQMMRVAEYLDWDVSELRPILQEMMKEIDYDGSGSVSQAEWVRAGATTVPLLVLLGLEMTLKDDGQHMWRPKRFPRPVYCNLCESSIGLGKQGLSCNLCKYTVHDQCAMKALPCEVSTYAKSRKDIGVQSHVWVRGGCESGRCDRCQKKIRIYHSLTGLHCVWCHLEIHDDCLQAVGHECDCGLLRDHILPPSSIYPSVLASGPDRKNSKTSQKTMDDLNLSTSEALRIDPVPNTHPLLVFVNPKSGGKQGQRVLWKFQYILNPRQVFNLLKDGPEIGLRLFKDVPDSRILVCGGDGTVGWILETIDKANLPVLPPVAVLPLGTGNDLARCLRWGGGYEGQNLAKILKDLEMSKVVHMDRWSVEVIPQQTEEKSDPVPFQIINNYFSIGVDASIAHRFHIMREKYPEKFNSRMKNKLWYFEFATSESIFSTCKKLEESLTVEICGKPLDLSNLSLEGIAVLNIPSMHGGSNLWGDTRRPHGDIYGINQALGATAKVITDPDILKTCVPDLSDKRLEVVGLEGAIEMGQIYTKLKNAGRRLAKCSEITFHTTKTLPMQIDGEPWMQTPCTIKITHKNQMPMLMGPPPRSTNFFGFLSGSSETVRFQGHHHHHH
T1 sequence (Q13574 with tags, fused parts or gaps isoform Q13574-4): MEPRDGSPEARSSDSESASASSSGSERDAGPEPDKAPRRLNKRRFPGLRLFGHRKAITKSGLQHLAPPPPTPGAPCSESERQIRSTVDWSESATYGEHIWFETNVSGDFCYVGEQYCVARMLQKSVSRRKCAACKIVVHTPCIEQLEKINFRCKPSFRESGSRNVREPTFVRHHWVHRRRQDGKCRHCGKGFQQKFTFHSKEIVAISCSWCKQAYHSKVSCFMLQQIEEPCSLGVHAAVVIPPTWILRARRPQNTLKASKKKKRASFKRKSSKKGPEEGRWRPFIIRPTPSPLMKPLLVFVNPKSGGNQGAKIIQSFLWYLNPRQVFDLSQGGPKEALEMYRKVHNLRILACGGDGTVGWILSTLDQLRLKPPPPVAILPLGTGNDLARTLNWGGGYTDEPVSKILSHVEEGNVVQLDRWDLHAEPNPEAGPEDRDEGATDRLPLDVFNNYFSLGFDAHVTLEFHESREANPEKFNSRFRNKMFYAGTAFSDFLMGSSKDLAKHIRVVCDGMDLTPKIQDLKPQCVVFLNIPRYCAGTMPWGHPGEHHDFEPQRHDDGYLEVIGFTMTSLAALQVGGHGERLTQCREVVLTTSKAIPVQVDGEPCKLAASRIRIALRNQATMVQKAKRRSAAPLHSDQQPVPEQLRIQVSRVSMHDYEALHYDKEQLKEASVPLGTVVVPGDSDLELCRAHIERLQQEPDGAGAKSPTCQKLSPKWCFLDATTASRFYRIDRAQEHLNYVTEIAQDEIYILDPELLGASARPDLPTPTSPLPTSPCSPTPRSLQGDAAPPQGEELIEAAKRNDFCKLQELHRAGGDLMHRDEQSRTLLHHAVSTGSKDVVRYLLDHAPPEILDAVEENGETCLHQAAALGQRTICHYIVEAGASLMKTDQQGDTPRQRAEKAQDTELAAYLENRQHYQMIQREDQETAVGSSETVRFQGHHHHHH

Row | SMILES | IC50 (human DGKζ) [nM] | IC50 (human DGKα) [nM] | EC50 (naïve human CD8 T cells) [nM] | EC50 (Human venous whole blood; Homo sapiens, 24 h) [nM] | EC50 (Human venous whole blood) [nM] | EC50 (naïve human CD8 T cells; Homo sapiens, T-cell, 20 h) [nM]
1 | CC(C)Oc1ncccc1C(c1ccc(F)cc1)N1C[C@H](C)N(c2cc(=O)n(C)c3ccc(C#N)nc23)C[C@H]1C (single isomer, unassigned) [Example 207] | 3100 | 71000 |  |  | 3500 | 430
2 | Cc1ccc(C(c2ccc(Cl)cc2)N2C[C@H](C)N(c3cc(=O)n(C)c4ccc(C#N)nc34)C[C@H]2C)nc1 (single isomer, unassigned) [Example 213] | 790 | 360 | 1100 | 460 |  | 
3 | C[C@@H]1CN(c2c(Cl)c(=O)n(C)c3ccc(C#N)nc23)[C@@H](C)CN1C(c1ccccc1)c1ccc(F)cc1 (single isomer, unassigned) [Example 217] | 140000 | 50000 |  | 20000 |  | 7800
4 | C[C@@H]1CN(c2c(Cl)c(=O)n(C)c3ccc(C#N)nc23)[C@@H](C)CN1C(c1ccccc1)c1ccc(F)cc1 (single isomer, unassigned) [Example 218] | > 250000 | 9500 | 10000 |  | 20000 | 
5 | CCc1cc(F)ccc1C(c1ccc(Cl)cc1)N1C[C@H](C)N(c2cc(=O)n(C)c3ccc(C#N)nc23)C[C@H]1C (single isomer, unassigned) [Example 226] | 1400 | 67000 | 67 |  | 1700 | 
6 | CCc1cc(F)ccc1C(c1ccc(F)cc1)N1C[C@H](C)N(c2cc(=O)n(C)c3ccc(C#N)nc23)C[C@H]1C (single isomer, unassigned) [Example 227] | 1000 | > 250000 |  |  | 13000 | 16
7 | CCc1cc(F)ccc1C(c1ccc(F)cc1)N1C[C@H](C)N(c2cc(=O)n(C)c3ccc(C#N)nc23)C[C@H]1C (single isomer, unassigned) [Example 228] | 1400 | 58000 | 31 |  | 2800 | 
8 | CCc1cc(F)ccc1C(c1ccc(Cl)cc1)N1C[C@H](C)N(c2cc(=O)n(C)c3ccc(OC)nc23)C[C@H]1C (single isomer, unassigned) [Example 231] | 3700 | 240000 | 1100 | 20000 |  | 
9 | CCc1cc(F)ccc1C(c1ccc(Cl)cc1)N1C[C@H](C)N(c2cc(=O)n(C)c3ccc(OC)nc23)C[C@H]1C (single isomer, unassigned) [Example 232] | 1700 | 240000 | 10000 |  | 20000 | 
10 | CCc1cc(F)ccc1C(c1ccc(F)cc1)N1C[C@H](C)N(c2cc(=O)n(C)c3ccc(OC)nc23)C[C@H]1C (single isomer, unassigned) [Example 233] | 3600 | 27000 | 10000 | 20000 |  | 
11 | CCc1cc(F)ccc1C(c1ccc(F)cc1)N1C[C@H](C)N(c2cc(=O)n(C)c3ccc(OC)nc23)C[C@H]1C (single isomer, unassigned) [Example 234] | 8700 | 240000 | 2500 |  | 20000 | 
12 | CCc1ccccc1C(c1ccc(F)cc1)N1C[C@H](C)N(c2cc(=O)n(C)c3ccc(OC)nc23)C[C@H]1C (single isomer, unassigned) [Example 235] | 4800 | 81000 | 1500 | 20000 |  | 
13 | CCc1ccccc1C(c1ccc(F)cc1)N1C[C@H](C)N(c2cc(=O)n(C)c3ccc(OC)nc23)C[C@H]1C (single isomer, unassigned) [Example 236] | 11000 | 240000 | 10000 |  | 20000 | 
14 | C[C@@H]1CN(c2cc(=O)n(C)c3ccc(C#N)nc23)[C@@H](C)CN1C(c1ccc(F)cc1)c1c(F)cccc1F (single isomer, unassigned) [Example 274] | 2500 | 5700 | 42 | 3600 |  | 
15 | C[C@@H]1CN(c2cc(=O)n(C)c3ccc(C#N)nc23)[C@@H](C)CN1C(c1ccc(F)cc1)c1c(F)cccc1F (single isomer, unassigned) [Example 275] | 3600 | 1900 | 230 |  | 3700 | 
16 | CCC(c1ccc(F)c(F)c1)N1C[C@H](C)N(c2cc(=O)n(C)c3ccc(C#N)nc23)C[C@H]1C (single isomer, unassigned) [Example 344] | 1000 | 1000 |  | 460 |  | 24

Molecules with a lower IC50 (human DGKζ), results first:

Row | IC50 (human DGKζ) [nM] | IC50 (human DGKα) [nM] | SMILES | EC50 (naïve human CD8 T cells) [nM] | EC50 (Human venous whole blood; Homo sapiens, 24 h) [nM] | EC50 (Human venous whole blood) [nM] | EC50 (naïve human CD8 T cells; Homo sapiens, T-cell, 20 h) [nM]
17 | 670 | 37000 | CCOc1ncccc1C(c1ccc(F)cc1)N1C[C@H](C)N(c2cc(=O)n(C)c3ccc(C#N)nc23)C[C@H]1C (single isomer, unassigned) [Example 205] | 150 | 990 |  | 
18 | 440 | 24000 | CCOc1ncccc1C(c1ccc(F)cc1)N1C[C@H](C)N(c2cc(=O)n(C)c3ccc(C#N)nc23)C[C@H]1C (single isomer, unassigned) [Example 206] | 39 |  | 1400 | 
19 | 680 | 11000 | CC(C)Oc1ncccc1C(c1ccc(F)cc1)N1C[C@H](C)N(c2cc(=O)n(C)c3ccc(C#N)nc23)C[C@H]1C (single isomer, unassigned) [Example 208] | 250 |  | 1000 | 
20 | 320 | 15000 | COc1ncccc1C(c1ccc(F)cc1)N1C[C@H](C)N(c2cc(=O)n(C)c3ccc(C#N)nc23)C[C@H]1C (single isomer, unassigned) [Example 209] |  | 1500 |  | 170
21 | 150 | 39 | C[C@@H]1CN(c2cc(=O)n(C)c3ccc(C#N)nc23)[C@@H](C)CN1C(c1ccc(F)cc1)c1ccc(Cl)cn1 (single isomer, unassigned) [Example 211] |  | 800 |  | 29
22 | 590 | 210 | C[C@@H]1CN(c2cc(=O)n(C)c3ccc(C#N)nc23)[C@@H](C)CN1C(c1ccc(F)cc1)c1ccc(Cl)cn1 (single isomer, unassigned) [Example 212] | 57 |  | 890 | 
23 | 290 | 72 | Cc1ccc(C(c2ccc(Cl)cc2)N2C[C@H](C)N(c3cc(=O)n(C)c4ccc(C#N)nc34)C[C@H]2C)nc1 (single isomer, unassigned) [Example 214] | 120 |  | 620 | 
24 | 530 | 660 | Cc1ccc(C(c2cccc(F)c2)N2C[C@H](C)N(c3cc(=O)n(C)c4ccc(C#N)nc34)C[C@H]2C)nc1 (single isomer, unassigned) [Example 215] | 33 |  | 2100 | 
25 | 210 | 180 | Cc1ccc(C(c2cccc(F)c2)N2C[C@H](C)N(c3cc(=O)n(C)c4ccc(C#N)nc34)C[C@H]2C)nc1 (single isomer, unassigned) [Example 216] | 74 |  | 130 | 
26 | 750 | 1200 | C[C@@H]1CN(c2cc(=O)n(C)c3ccc(C#N)nc23)[C@@H](C)CN1C(c1ccccc1)c1ccc(OC(F)(F)F)cc1 (single isomer, unassigned) [Example 221] |  |  | 3000 | 42
27 | 710 | 290 | C[C@@H]1CN(c2cc(=O)n(C)c3ccc(C#N)nc23)[C@@H](C)CN1C(c1ccccc1)c1ccc(OC(F)(F)F)cc1 (single isomer, unassigned) [Example 222] | 46 |  | 680 | 
28 | 34 | 280 | Cc1cccc(C(c2ccc(F)cc2)N2C[C@H](C)N(c3cc(=O)n(C)c4ccc(C#N)nc34)C[C@H]2C)c1 (single isomer, unassigned) [Example 223] |  | 870 |  | 29
29 | 57 | 1500 | Cc1cccc(C(c2ccc(F)cc2)N2C[C@H](C)N(c3cc(=O)n(C)c4ccc(C#N)nc34)C[C@H]2C)c1 (single isomer, unassigned) [Example 224] | 24 |  | 1000 | 
30 | 450 | 58000 | CCOc1cc(F)ccc1C(c1ccc(F)cc1)N1C[C@H](C)N(c2cc(=O)n(C)c3ccc(C#N)nc23)C[C@H]1C (single isomer, unassigned) [Example 229] | 1000 | 8300 |  | 
31 | 490 | 26000 | CCOc1cc(F)ccc1C(c1ccc(F)cc1)N1C[C@H](C)N(c2cc(=O)n(C)c3ccc(C#N)nc23)C[C@H]1C (single isomer, unassigned) [Example 230] | 370 |  | 5300 | 
32 | 440 | 820 | C[C@@H]1CN(c2cc(=O)n(C)c3ccc(C#N)nc23)[C@@H](C)CN1C(c1ccc(F)cc1)c1cccc(F)c1 (single isomer, unassigned) [Example 249] |  | 690 |  | 32
33 | 450 | 990 | C[C@@H]1CN(c2cc(=O)n(C)c3ccc(C#N)nc23)[C@@H](C)CN1C(c1ccccc1)c1c(F)cccc1F (single isomer, unassigned) [Example 272] |  |  | 2500 | 79
34 | 490 | 720 | CC(c1ccc(F)cc1)N1C[C@H](C)N(c2cc(=O)n(C)c3ccc(C#N)nc23)C[C@H]1C (single isomer, unassigned) [Example 309] | 36 |  | 880 | 
